The test concerns HIV-1 viral population of patient sample 848. Put plainly: Resistance test vector phenotypic drug susceptibility assay of patient sample 848. The class given is cell-based. The following applies: mixed viral population in sample 848, FIG. 3. From the text: Patient-derived segment(s) corresponding to the HIV protease and reverse transcriptase coding regions were amplified by the reverse transcription-polymerase chain reaction method (RT-PCR) using viral RNA isolated from viral particles present in the plasma or serum of HIV-infected individuals as follows. Viral RNA was isolated from the plasma or serum using oligo-dT magnetic beads (Dynal Biotech, Oslo, Norway), followed by washing and elution of viral RNA. The RT-PCR protocol was divided into two steps. A retroviral reverse transcriptase (e.g. Moloney MuLV reverse transcriptase (Roche Molecular Systems, Inc., Branchburg, N.J.; Invitrogen, Carlsbad, Calif.), or avian myeloblastosis virus (AMV) reverse transcriptase (Roche Molecular Systems, Inc., Branchburg, N.J.), or) was used to copy viral RNA into cDNA. The cDNA was then amplified using a thermostable DNA polymerase (e.g. Taq (Roche Molecular Systems, Inc., Branchburg, N.J.), Tth (Roche Molecular Systems, Inc., Branchburg, N.J.), PRIMEZYME™ (isolated from Thermus brockianus, Biometra, Gottingen, Germany)) or a combination of thermostable polymerases as described for the performance of “long PCR” Barnes, W. M., 1994, Proc. Natl. Acad. Sci, USA 91, 2216-20) (e.g. Expand High Fidelity PCR System (Taq+Pwo), (Boehringer Mannheim. Indianapolis, Ind.); GENEAMP XL™ PCR kit (Tth+Vent), (Roche Molecular Systems, Inc., Branchburg, N.J.); or ADVANTAGE II®, Clontech, Palo Alto, Calif.)
Resistance test vectors incorporating the “test” patient-derived segments were constructed as described in U.S. Pat. No. 5,837,464 using an amplified DNA product of 1.5 kB prepared by RT-PCR using viral RNA as a template and oligonucleotides PDS Apa, PDS Age, PDS PCR6, Apa-gen, Apa-c, Apa-f, Age-gen, Age-a, RT-ad, RT-b, RT-c, RT-f, and/or RT-g as primers, followed by digestion with ApaI and AgeI or the isoschizomer PinA1. To ensure that the plasmid DNA corresponding to the resultant fitness test vector comprises a representative sample of the HIV viral quasi-species present in the serum of a given patient, many (>250) independent E. coli transformants obtained in the construction of a given fitness test vector are pooled and used for the preparation of plasmid DNA.
A packaging expression vector encoding an amphotrophic MuLV 4070A env gene product enables production in a resistance test vector host cell of resistance test vector viral particles which can efficiently infect human target cells. Resistance test vectors encoding all HIV genes with the exception of env were used to transfect a packaging host cell (once transfected the host cell is referred to as a fitness test vector host cell). The packaging expression vector which encodes the amphotrophic MuLV 4070A env gene product is used with the resistance test vector to enable production in the resistance test vector host cell of infectious pseudotyped resistance test vector viral particles.
Drug resistance tests performed with resistance test vectors were carried out using packaging host and target host cells consisting of the human embryonic kidney cell line 293. See U.S. Pat. No. 5,837,464.
Resistance tests were carried out with resistance test vectors using two host cell types. Resistance test vector viral particles were produced by a first host cell (the resistance test vector host cell) that was prepared by transfecting a packaging host cell with the resistance test vector and the packaging expression vector. The resistance test vector viral particles were then used to infect a second host cell (the target host cell) in which the expression of the indicator gene is measured.
The resistance test vectors containing a functional luciferase gene cassette were constructed as described above and host cells were transfected with the resistance test vector DNA. […]

With `Cc1cccc(C)c1OCC(=O)N[C@@H](Cc1ccccc1)[C@@H](O)C[C@H](Cc1ccccc1)NC(=O)[C@H](C(C)C)N1CCCNC1=O` [LPV, lopinavir], the “phenotypic resistance score of the viral population” value (shortened to “phenotypic resistance score”) was “resistant”.

`CC(C)(C)NC(=O)[C@@H]1CN(Cc2cccnc2)CCN1C[C@@H](O)C[C@@H](Cc1ccccc1)C(=O)N[C@H]1c2ccccc2C[C@H]1O` [IDV, indinavir]: the “phenotypic resistance score” value was “resistant”.

Regarding `CC(C)c1nc(CN(C)C(=O)N[C@H](C(=O)N[C@@H](Cc2ccccc2)C[C@H](O)[C@H](Cc2ccccc2)NC(=O)OCc2cncs2)C(C)C)cs1` [RTV, ritonavir], the “phenotypic resistance score” value was “resistant”.

In the case of `CC(C)(C)NC(=O)[C@@H]1C[C@@H]2CCCC[C@@H]2CN1C[C@@H](O)[C@H](Cc1ccccc1)NC(=O)[C@H](CC(N)=O)NC(=O)c1ccc2ccccc2n1` [SQV, saquinavir], the “phenotypic resistance score” value is reported as “resistant”.

For `Cc1c(O)cccc1C(=O)N[C@@H](CSc1ccccc1)[C@H](O)CN1C[C@H]2CCCC[C@H]2C[C@H]1C(=O)NC(C)(C)C` [NFV, nelfinavir], the “phenotypic resistance score” value is listed as “resistant”.

`CC(C)CN(C[C@@H](O)[C@H](Cc1ccccc1)NC(=O)O[C@H]1CCOC1)S(=O)(=O)c1ccc(N)cc1` [AMP, amprenavir]: the “phenotypic resistance score” value is given as “resistant”.

The values are drawn from patent US20090087841A1, “METHODS AND COMPOSITIONS FOR D[…] HIV-1 TO PROTEASE INHIBITORS” (Monogram Biosciences, Inc., priority 2005, published 2009).
